ChEMBL document CHEMBL4622990, “Synthesis and Antitumor Activity of C-7-Alkynylated and Arylated Pyrrolotriazine C-Ribonucleosides” (ACS Med Chem Lett, 2020)
The source made the active and inactive calls. No cut-off for these calls is given here.

Key:
[1] = tested on: CAPAN-1; assay: Antiproliferative activity against human Capan1 cells assessed as reduction in cell viability incubated for 72 hrs by IncuCyte live-cell imaging assay; format: functional, cell-based; details: CAPAN-1, 72 h
[2] = tested on: LN-229; assay: Antiproliferative activity against human LN229 cells assessed as reduction in cell viability incubated for 72 hrs by IncuCyte live-cell imaging assay; format: functional, cell-based; details: LN-229, 72 h
[3] = tested on: Z-138; assay: Antiproliferative activity against human Z138 cells assessed as reduction in cell viability incubated for 72 hrs by IncuCyte live-cell imaging assay; format: functional, cell-based; details: Z-138, 72 h
[4] = tested on: K562; assay: Antiproliferative activity against human K562 cells assessed as reduction in cell viability incubated for 72 hrs by IncuCyte live-cell imaging assay; format: functional, cell-based; details: K562, 72 h
[5] = tested on: NCI-H460; assay: Antiproliferative activity against human NCI-H460 cells assessed as reduction in cell viability incubated for 72 hrs by IncuCyte live-cell imaging assay; format: functional, cell-based; details: NCI-H460, 72 h
[6] = tested on: HCT-116; assay: Antiproliferative activity against human HCT116 cells assessed as reduction in cell viability incubated for 72 hrs by IncuCyte live-cell imaging assay; format: functional, cell-based; details: HCT-116, 72 h
[7] = Antiproliferative activity against human DND41 cells assessed as reduction in cell viability incubated for 72 hrs by IncuCyte live-cell imaging assay; format: functional, cell-based; details: DND41, 72 h
[8] = tested on: HL-60; assay: Antiproliferative activity against human HL60 cells assessed as reduction in cell viability incubated for 72 hrs by IncuCyte live-cell imaging assay; format: functional, cell-based; details: HL-60, 72 h
[9] = tested on: HEp-2; assay: Induction of DNA damage in human Hep2 cells assessed as increase in gamma-H2AX positive cells after 24 hrs by DAPI staining based immunofluorescence analysis; format: functional, cell-based
[10] = tested on: CAPAN-1; assay: Induction of apoptosis in human Capan1 cells assessed as increase in apoptotic cells incubated for 72 hrs and measured at 3 hrs interval by IncuCyte Caspase 3/7 Green reagent based assay; format: functional, cell-based
[11] = biological target: Tubulin (Homo sapiens) (UniProt P68371+Q9H4B7+P0DPH7+P68366+Q13509+Q71U36+P04350+Q3ZCM7+P07437+P68363+Q9BQE3+Q6PEY2+Q13885+Q9BVA1+Q9BUF5); assay: Inhibition of tubulin polymerization in human Hep2 cells at 100 uM after 3 hrs by DAPI-staining based fluorescence microscopic assay; format: cell-based; details: HEp-2
[12] = tested on: HEp-2; assay: Induction of DNA damage in human Hep2 cells assessed as gamma-H2AX positive cells at 100 uM after 24 hrs by DAPI staining based immunofluorescence analysis (reference value: 0.51%); format: functional
[13] = tested on: HEp-2; assay: Induction of DNA damage in human Hep2 cells assessed as gamma-H2AX positive cells at 1 uM after 24 hrs by DAPI staining based immunofluorescence analysis relative to control; format: functional
[14] = tested on: HEp-2; assay: Induction of DNA damage in human Hep2 cells assessed as gamma-H2AX positive cells at 10 uM after 24 hrs by DAPI staining based immunofluorescence analysis relative to control; format: functional
[15] = tested on: PBMC; assay: Induction of apoptosis in human PBMC assessed as caspase 3/7 activation at 0.0064 to 100 uM incubated for 72 hrs and measured at 3 hrs interval by IncuCyte Caspase 3/7 Green reagent based assay; format: cell-based
[16] = tested on: Salmon testes DNA; assay: Binding affinity to salmon sperm DNA assessed as DNA intercalation at 20 uM incubated for 20 mins by acridine orange orange dye based fluorescence polarization assay; format: nucleic-acid assay; details: Salmonidae
[17] = tested on: PBMC; assay: Induction of apoptosis in human PBMC assessed as caspase 3/7 activation incubated for 72 hrs and measured at 3 hrs interval by IncuCyte Caspase 3/7 Green reagent based assay; format: cell-based

Row | SMILES | IC50 [1] | IC50 [2] | IC50 [3] | IC50 [4] | IC50 [5] | IC50 [6] | IC50 [7] | IC50 [8] | Activity [9] | Activity [10] | inhibition [11] | Activity [12] | Activity [13] | Activity [14] | Activity [15] | Activity [16] | IC50 [17]
1 | Nc1ncnn2c([C@@H]3O[C@H](CO)[C@@H](O)[C@H]3O)cc(-c3ccc(F)cc3F)c12 | 50.9 µM | 43.5 µM | 59.1 µM | 69.7 µM | 93.3 µM | 59.5 µM | 68.2 µM | 99.3 µM |  |  |  |  |  |  |  |  | 
2 | Nc1ncnn2c([C@@H]3O[C@H](CO)[C@@H](O)[C@H]3O)cc(-c3ccc(F)cc3)c12 | 65.6 µM | 65.6 µM | > 100 µM | > 100 µM | 55.5 µM | 42.5 µM | 39.3 µM | 68.3 µM |  |  |  |  |  |  |  |  | 
3 | Nc1ncnn2c([C@@H]3O[C@H](CO)[C@@H](O)[C@H]3O)cc(-c3ccoc3)c12 | 0.9 µM | 1 µM | 0.3 µM | 2.1 µM | 1.5 µM | 1.4 µM | 0.1 µM | 0.5 µM | Dose-dependent effect | Active | Active | 3.74% | 0.13% | 1.54% | Non-Toxic | Active | 
4 | Nc1ncnn2c([C@@H]3O[C@H](CO)[C@@H](O)[C@H]3O)cc(C#Cc3ccccc3)c12 | 37.7 µM | 88 µM | 41.4 µM | > 100 µM | 38.5 µM | 46.9 µM | 62.6 µM | > 100 µM |  |  |  |  |  |  |  |  | 
5 | Nc1ncnn2c([C@@H]3O[C@H](CO)[C@@H](O)[C@H]3O)cc(-c3ccsc3)c12 | 56.2 µM | 57.7 µM | 43.5 µM | 66.4 µM | 35.6 µM | 45.2 µM | 85.4 µM | 37.3 µM |  |  |  |  |  |  |  |  | 
6 | CC(=O)O[C@@]12CO[C@@H]1C[C@H](O)[C@@]1(C)C(=O)[C@H](O)C3=C(C)[C@@H](OC(=O)[C@H](O)[C@@H](NC(=O)OC(C)(C)C)c4ccccc4)C[C@@](O)([C@@H](OC(=O)c4ccccc4)[C@H]21)C3(C)C [DOCETAXEL ANHYDROUS] | 0.025 µM | 0.002 µM | 0.004 µM | 0.009 µM | 0.004 µM | 0.007 µM | 0.005 µM | 0.05 µM |  |  |  |  |  |  |  |  | 
7 | Nc1ncnn2c([C@@H]3O[C@H](CO)[C@@H](O)[C@H]3O)cc(C#Cc3cccs3)c12 | 32 µM | > 100 µM | 50.1 µM | > 100 µM | 26.6 µM | 65.5 µM | 33.4 µM | > 100 µM |  |  |  |  |  |  |  |  | 
8 | Nc1ncnn2c([C@@H]3O[C@H](CO)[C@@H](O)[C@H]3O)cc(-c3ccccc3)c12 | 65.2 µM | 75.1 µM | > 100 µM | > 100 µM | > 100 µM | 82.6 µM | > 100 µM | > 100 µM |  |  |  |  |  |  |  |  | 
9 | Nc1ncnn2c([C@@H]3O[C@H](CO)[C@@H](O)[C@H]3O)cc(/C=C/c3ccccc3)c12 | 2.6 µM | 3.9 µM | 1.3 µM | 3.1 µM | 3.7 µM | 4.8 µM | 1.7 µM | 2 µM | Dose-dependent effect |  | Active | 0.22% | 0.05% | 0% | Non-Toxic | Active | 
10 | Nc1ncnn2c([C@@H]3O[C@H](CO)[C@@H](O)[C@H]3O)cc(C#CC3CC3)c12 | 0.02 µM | 0.03 µM | 0.02 µM | 0.04 µM | 0.08 µM | 0.05 µM | 0.04 µM | 0.04 µM | Dose-dependent effect | Active | Active | 16.22% | 3.22% | 5.2% |  | Active | 0.1 to 0.4 µM
11 | COc1ccc(-c2cc([C@@H]3O[C@H](CO)[C@@H](O)[C@H]3O)n3ncnc(N)c23)cc1 | 43.9 µM | 40.3 µM | 62.6 µM | 76.4 µM | 69.3 µM | 47.1 µM | 41.7 µM | > 100 µM |  |  |  |  |  |  |  |  | 
12 | CCCCC#Cc1cc([C@@H]2O[C@H](CO)[C@@H](O)[C@H]2O)n2ncnc(N)c12 | 1 µM | 1 µM | 0.2 µM | 2.4 µM | 1.7 µM | 2.9 µM | 0.4 µM | 0.4 µM | Dose-dependent effect | Active | Active | 1.57% | 0.31% | 0.35% | Non-Toxic | Active | 
13 | Nc1ncnn2c([C@@H]3O[C@H](CO)[C@@H](O)[C@H]3O)cc(C#Cc3ccc(F)cc3)c12 | 55.4 µM | > 100 µM | 89 µM | > 100 µM | 79.4 µM | > 100 µM | > 100 µM | > 100 µM |  |  |  |  |  |  |  |  | 
14 | Cc1ccccc1-c1cc([C@@H]2O[C@H](CO)[C@@H](O)[C@H]2O)n2ncnc(N)c12 | 97.5 µM | > 100 µM | 66 µM | > 100 µM | > 100 µM | > 100 µM | 94.1 µM | 48.4 µM |  |  |  |  |  |  |  |  | 
15 | Nc1ncnn2c([C@@H]3O[C@H](CO)[C@@H](O)[C@H]3O)cc(-c3ccccc3Cl)c12 | 54.9 µM | > 100 µM | 76.1 µM | > 100 µM | > 100 µM | > 100 µM | 78.5 µM | > 100 µM |  |  |  |  |  |  |  |  | 
16 | CN[C@@H]1C[C@H]2O[C@@](C)([C@@H]1OC)n1c3ccccc3c3c4c(c5c6ccccc6n2c5c31)C(=O)NC4 [STAUROSPORINE] |  |  |  | 0.04 µM | 0.06 µM | 0.04 µM |  | 0.04 µM |  |  |  |  |  |  |  |  | 
17 | COc1cc([C@@H]2c3cc4c(cc3[C@@H](O[C@@H]3O[C@@H]5CO[C@@H](C)O[C@H]5[C@H](O)[C@H]3O)[C@H]3COC(=O)[C@H]23)OCO4)cc(OC)c1O [ETOPOSIDE] |  |  |  |  |  |  |  |  |  |  |  | 89.31% | 1.66% | 89.89% |  |  | 
18 | Nc1ncnn2c([C@@H]3O[C@H](CO)[C@@H](O)[C@H]3O)cc(-c3ccc(Cl)cc3)c12 | 56.7 µM | 32.6 µM | 40.2 µM | 47.8 µM | 45.9 µM | 59.3 µM | 35.1 µM | 37.9 µM |  |  |  |  |  |  |  |  | 
19 | Nc1ncnn2c([C@@H]3O[C@H](CO)[C@@H](O)[C@H]3O)cc(-c3ccccc3F)c12 | > 100 µM | > 100 µM | 95.3 µM | > 100 µM | > 100 µM | > 100 µM | > 100 µM | > 100 µM |  |  |  |  |  |  |  |  | 
20 | CCCC#Cc1cc([C@@H]2O[C@H](CO)[C@@H](O)[C@H]2O)n2ncnc(N)c12 | 0.02 µM | 0.04 µM | 0.02 µM | 1.1 µM | 0.4 µM | 0.2 µM | 0.08 µM | 0.2 µM | Dose-dependent effect |  | Active | 9.38% | 1.14% | 0.82% |  | Active | 0.05 to 11 µM
